Experimental data as given in patent publication US8512941B2, “Biological material and methods and solutions for preservation thereof” (Core Dynamics Limited, priority 2004, dated 2013).

Experiments:
Red blood cells (RBC) = assay: RBC survival (cell count) after freezing/thawing or lyophilizing/rehydrating at 2.5 ml; type: cell-based; conditions: thawed, not lyophilized
Protocol: Red blood cells (RBC) were separated from whole blood received from the Israeli Blood Bank. The blood was centrifuged for 10 minutes at 1500 g and the plasma was discarded. […] Afterwards the supernatant was discarded, and an equal volume of cryopreservation solution selected from the solutions in Table I was added to the packed RBC. Different volumes (2.5-50 ml) of the RBC suspension were transferred to a 16-25 mm diameter glass test tube ([…], Israel). The experiment of freezing 200 ml of RBC suspension was done in a 2000 ml freezing bag (Baxter-Fenwal, USA). Samples were then either frozen and thawed in a water bath at 37° C. or lyophilized and rehydrated with double distilled water (DDW) at 37° C. Glass test tubes containing RBC were frozen in a modified MTG freezing apparatus, as described in WO 03/020874 (manufactured by IMT, Israel). The thermal gradient in the cooling unit was set to 5.5° C./mm or 10.5° C./mm or 15.5° C./mm (as detailed below) with final temperatures of -50° C., -100° C. or -150° C. […] During freezing the test tubes that contained only 2.5 ml samples were rotated at a rate of 56 rpm. Subsequent to freezing, biological material was taken from each test tube to test for cell viability. Lyophilization was performed in a commercial lyophilizer (Labconco, USA) with a condenser temperature of -82° C. for 72 hours. The biological material was is rehydrated by adding DDW to reach the sample's original volume. Frozen (but not lyophilized) material was thawed by immersion in a water bath at 37° C. for until it melted. Melting was observed visually. Cells were counted using the […] 60 cell counter (ABX, France), in accordance with the manufacturer's manual. This device provides a complete cell count (CBC) that includes parameters such as: cell number, hematocrit, mean cell volume, hemoglobin, etc. […] In these experiments the cell suspension volume was 2.5 ml.

RBC = conditions: introduction of trehalose into fresh RBC, not frozen or freeze-dried; Satpathy et al. 2004; cited from earlier work

OC[C@H]1O[C@H](O[C@H]2O[C@H](CO)[C@@H](O)[C@H](O)[C@H]2O)[C@H](O)[C@@H](O)[C@@H]1O [Trehalose, reference compound]
RBC survival, 1A Thawed (Red blood cells (RBC); frozen at 1,000° C./min, percentage of total fresh cells counted): 89.04% | RBC survival, 2A Thawed (Red blood cells (RBC); frozen at 2,000° C./min): 93.24% | hemolysis (RBC): causes significant hemolysis
